Literature values as cited in patent EP2156182B1, “DETECTION OF AN ANALYTE IN A SAMPLE OF HEMOLYZED WHOLE BLOOD” (Roche Diagnostics GmbH, priority 2007, dated 2008).

What was measured:
[1] = relative to cyclosporin
[2] = therapeutic range, whole blood drug monitoring

therapeutic trough concentration [2] | SMILES | times more potent than cyclosporin in vitro [1]
5 to 20 µg/L | C=CC[C@@H]1/C=C(\C)C[C@H](C)C[C@H](OC)[C@H]2O[C@@](O)(C(=O)C(=O)N3CCCC[C@H]3C(=O)O[C@H](/C(C)=C/[C@@H]3CC[C@@H](O)[C@H](OC)C3)[C@H](C)[C@@H](O)CC1=O)[C@H](C)C[C@@H]2OC [Tacrolimus, tacrolimus] | up to 100 times
5 to 15 µg/L | CO[C@H]1C[C@@H]2CC[C@@H](C)[C@@](O)(O2)C(=O)C(=O)N2CCCC[C@H]2C(=O)O[C@H]([C@H](C)C[C@@H]2CC[C@@H](O)[C@H](OC)C2)CC(=O)[C@H](C)/C=C(\C)[C@@H](O)[C@@H](OC)C(=O)[C@H](C)C[C@H](C)/C=C/C=C/C=C/1C [sirolimus] | –
